Where two headings read alike, the source gives them in different places.
Assays:
[1] = tested on: Phytophthora infestans—PHYTIN; test: whole plant or invertebrate; format: in vivo; details: Phytophthora, in Solanum lycopersicum, 24 h, read-out: PHYTIN in vivo 1 Day Protectant
[2] = tested on: Puccinia recondita—PUCCRT; test: Brown Rust of Wheat, in vivo whole plant, 24 Hour Protectant; details: Puccinia, read-out: PUCCRT in vivo 1 Day Protectant
[3] = tested on: Mycosphaerella graminicola (Septoria tritici—SEPTTR); test: In vitro fungal growth inhibition, Mycosphaerella graminicola (SEPTTR); format: cell-based; details: Zymoseptoria tritici, read-out: SEPTTR in vitro Growth Inhibition
Erysiphe graminis—ERYSGT = test: Powdery Mildew of Wheat, in vivo whole plant, 24 Hour Protectant; details: Erysiphe, read-out: ERYSGT in vivo 1 Day Protectant
[4] = tested on: Stagonospora nodorum (Leptosphaeria nodorum—LEPTNO); test: In vitro fungal growth inhibition, Stagonospora nodorum (LEPTNO); format: cell-based; details: Leptosphaeria, read-out: LEPTNO in vitro Growth Inhibition
Ustilago maydis (USTIMA) = test: microbe, parasite or virus in culture; format: cell-based; details: Mycosarcoma maydis, read-out: USTIMA in vitro Growth Inhibition
[5] = tested on: Magnaporthe grisea (Pyricularia oryzae—PYRIOR); test: microbe, parasite or virus in culture; format: cell-based; details: Pyricularia oryzae, read-out: PYRIOR in vitro Growth Inhibition
[6] = tested on: Phytophthora infestans (PHYTIN); test: microbe, parasite or virus in culture; format: cell-based; details: Phytophthora infestans, read-out: PHYTIN in vitro Growth Inhibition
Septoria tritici—SEPTTR = test: Leaf Blotch of Wheat, in vivo whole plant, 24 Hour Protectant; details: Zymoseptoria tritici, 24 h, read-out: SEPTTR in vivo 1 Day Protectant
[7] = tested on: Leptosphaeria nodorum—LEPTNO; test: Glume Blotch of Wheat, in vivo whole plant, 24 Hour Protectant; details: for pest or weed control at 100 ppm: Leptosphaeria, read-out: LEPTNO in vivo 1 Day Protectant
[8] = tested on: Rhizoctonia solani (RHIZSO); test: microbe, parasite or virus in culture; format: cell-based; details: Rhizoctonia solani, read-out: RHIZSO in vitro Growth Inhibition
[9] = 100 ppm spray, wheat, 24 hour protectant, control of fungal infection vs untreated plants
[10] = wheat plants sprayed at 100 ppm, inoculated after 24 hours, control of fungal infection vs untreated plants
[11] = 100 ppm spray, 24 hour protectant, wheat, control of fungal infection vs untreated plants
[12] = 100 ppm spray, wheat, 24 hour protectant, % control of fungal infection vs untreated plants

Row | SMILES | pest or weed control at 100 ppm [1] [%] | inhibition at 25 ppm ([3]; 25 ppm in growth medium) [%] | inhibition at 25 ppm ([4]; 25 ppm in growth medium) [%] | melting point | inhibition at 25 ppm (Ustilago maydis (USTIMA)) [%] | inhibition at 25 ppm [5] [%] | inhibition at 25 ppm [6] [%] | inhibition at 25 ppm [8] [%] | pest or weed control at 100 ppm [2, 10] [%] | inhibition at 25 ppm ([3]; 25 ppm in the growth medium) [%] | pest or weed control at 100 ppm (Erysiphe graminis—ERYSGT; [10]) [%] | inhibition at 25 ppm ([4]; 25 ppm in the growth medium) [%] | pest or weed control at 100 ppm (Septoria tritici—SEPTTR; [10]) [%] | pest or weed control at 100 ppm [7, 10] [%] | other results
1 | COc1ccnc(C(=O)Nc2ccc(Oc3ccc(OC(=O)C(C)C)cc3)cc2)c1O [Compound 436] | < 25 | < 80 | < 80 | 109 to 110.5 °C | < 80 | < 80 | < 80 | < 80 |  |  |  |  |  |  | pest or weed control at 100 ppm [2, 9]: < 25%; pest or weed control at 100 ppm (Erysiphe graminis—ERYSGT; [9]): < 25%; pest or weed control at 100 ppm (Septoria tritici—SEPTTR; [9]): 25 to 74%; pest or weed control at 100 ppm [7, 9]: 25 to 74%
2 | O=C(Nc1ccccc1Oc1ccccc1)c1cccnc1O [Compound 520] | < 25 |  |  | 234 to 235 °C | < 80 | < 80 | < 80 | < 80 | < 25 | < 80 | < 25 | < 80 | < 25 | 25 to 74 | 
3 | COc1ccnc(C(=O)NC(C)c2ccc(Cl)cc2)c1O (stereo not drawn) [Compound 246] | < 25 | < 80 | < 80 | 140 to 142 °C | < 80 | < 80 | < 80 | < 80 |  |  |  |  |  |  | pest or weed control at 100 ppm [2, 11]: < 25%; pest or weed control at 100 ppm (Erysiphe graminis—ERYSGT; [11]): 25 to 74%; pest or weed control at 100 ppm (Septoria tritici—SEPTTR; [11]): 25 to 74%; LEPTNO in vivo 1 Day Protectant [7, 11]: + +
4 | COc1ccnc(C(=O)Nc2ccc(Oc3cc(Cl)nc(C(F)(F)F)c3)cc2)c1O [Compound 467] | < 25 |  |  | 198 to 201 °C | < 80 | < 80 | < 80 | < 80 | < 25 | < 80 | 25 to 74 | > 80 | 25 to 74 | 25 to 74 | 
5 | CCOc1ccnc(C(=O)NC2CC(C)(C)CC(C)(C)C2)c1O [Compound 474] | < 25 |  |  | 107 to 110 °C | < 80 | < 80 | < 80 | < 80 | 25 to 74 | < 80 | < 25 | < 80 | < 25 | 25 to 74 | 
6 | COc1ccnc(C(=O)NC2COC(=O)CC3(CCCCC3)CC(=O)OC2)c1O [Compound 380] | < 25 | < 80 | < 80 | 107 to 108 °C | < 80 | < 80 | < 80 | < 80 |  |  |  |  |  |  | pest or weed control at 100 ppm [2, 9]: < 25%; pest or weed control at 100 ppm (Erysiphe graminis—ERYSGT; [9]): 25 to 74%; pest or weed control at 100 ppm (Septoria tritici—SEPTTR; [9]): < 25%; pest or weed control at 100 ppm [7, 9]: 25 to 74%
7 | COc1ccnc(C(=O)Nc2ccc(C(=O)Oc3ccc(C(F)(F)F)cc3)cc2)c1OC(C)=O [Compound 717] | < 25 | < 80 | < 80 | 203 to 205 °C | < 80 | < 80 | < 80 | < 80 |  |  |  |  |  |  | pest or weed control at 100 ppm [2, 12]: < 25%; pest or weed control at 100 ppm (Erysiphe graminis—ERYSGT; [12]): < 25%; pest or weed control at 100 ppm (Septoria tritici—SEPTTR; [12]): 25 to 74%; pest or weed control at 100 ppm [7, 12]: 25 to 74%
8 | O=C(Nc1ccc(Oc2cccc(C(F)(F)F)c2)cc1)c1nccnc1O [Compound 535] | < 25 |  |  | 239 to 243 °C (dec.) | < 80 | < 80 | < 80 | > 80 | 25 to 74 | < 80 | < 25 | < 80 | 25 to 74 | 25 to 74 | 
9 | Cc1ccc(CNC(=O)c2ncccc2O)cc1 [Compound 223] | < 25 | < 80 | > 80 | 83 to 84 °C | > 80 | > 80 | > 80 | < 80 |  |  |  |  |  |  | pest or weed control at 100 ppm [2, 11]: < 25%; pest or weed control at 100 ppm (Erysiphe graminis—ERYSGT; [11]): < 25%; pest or weed control at 100 ppm (Septoria tritici—SEPTTR; [11]): < 25%; pest or weed control at 100 ppm [7, 11]: < 25%
10 | COc1ccnc(C(=O)Nc2cccc(OC3CC(C)(C)OC(C)(C)C3)c2)c1O [Compound 460] | < 25 | < 80 | < 80 | 149 to 153 °C | < 80 | < 80 | < 80 | < 80 |  |  |  |  |  |  | pest or weed control at 100 ppm [2, 9]: 25 to 74%; pest or weed control at 100 ppm (Erysiphe graminis—ERYSGT; [9]): 25 to 74%; pest or weed control at 100 ppm (Septoria tritici—SEPTTR; [9]): 25 to 74%; pest or weed control at 100 ppm [7, 9]: 25 to 74%
11 | COc1ccnc(C(=O)N[C@@H]2CC(C)(C)C[C@](C)(C(=O)N(C)CCc3ccccc3)C2)c1O [Compound 262] | < 25 | < 80 | < 80 | 59 to 60 °C | < 80 | < 80 | < 80 | < 80 |  |  |  |  |  |  | pest or weed control at 100 ppm [2, 11]: < 25%; pest or weed control at 100 ppm (Erysiphe graminis—ERYSGT; [11]): < 25%; pest or weed control at 100 ppm (Septoria tritici—SEPTTR; [11]): 25 to 74%; pest or weed control at 100 ppm [7, 11]: 25 to 74%

Source: patent US6706740B2, “Fungicidal heterocyclic aromatic amides and their compositions, methods of use and preparation” (Dow AgroSciences LLC, priority 1999, dated 2004)
